Calls of active or inactive are those of the source.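 Rule for the calls: active = IC50 of 10 µM or lower; inactive = IC50 above 10 µM.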 Some results are limits rather than exact numbers.

In the assay the target is Mitogen-activated protein kinase kinase kinase 5 (Homo sapiens) (UniProt Q99683). The assay is described as follows: ASK1 kinase inhibitor potency, dose response, biochemical, AlphaScreen, MKK6 phosphorylation (AID 1159605).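 Note: ASK1 phosphorylation of MKK6 substrate detected with anti-phospho-MKK6 antibody beads; inhibitors lower the luminescent signal by blocking MKK6 phosphorylation.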 The conditions noted are these: AlphaScreen luminescence. For orientation: In Alpha technology, singlet oxygen from a donor bead excites a nearby acceptor bead.
Chain of Mitogen-activated protein kinase kinase kinase 5 (Homo sapiens) (Q99683 whole entry, looked up): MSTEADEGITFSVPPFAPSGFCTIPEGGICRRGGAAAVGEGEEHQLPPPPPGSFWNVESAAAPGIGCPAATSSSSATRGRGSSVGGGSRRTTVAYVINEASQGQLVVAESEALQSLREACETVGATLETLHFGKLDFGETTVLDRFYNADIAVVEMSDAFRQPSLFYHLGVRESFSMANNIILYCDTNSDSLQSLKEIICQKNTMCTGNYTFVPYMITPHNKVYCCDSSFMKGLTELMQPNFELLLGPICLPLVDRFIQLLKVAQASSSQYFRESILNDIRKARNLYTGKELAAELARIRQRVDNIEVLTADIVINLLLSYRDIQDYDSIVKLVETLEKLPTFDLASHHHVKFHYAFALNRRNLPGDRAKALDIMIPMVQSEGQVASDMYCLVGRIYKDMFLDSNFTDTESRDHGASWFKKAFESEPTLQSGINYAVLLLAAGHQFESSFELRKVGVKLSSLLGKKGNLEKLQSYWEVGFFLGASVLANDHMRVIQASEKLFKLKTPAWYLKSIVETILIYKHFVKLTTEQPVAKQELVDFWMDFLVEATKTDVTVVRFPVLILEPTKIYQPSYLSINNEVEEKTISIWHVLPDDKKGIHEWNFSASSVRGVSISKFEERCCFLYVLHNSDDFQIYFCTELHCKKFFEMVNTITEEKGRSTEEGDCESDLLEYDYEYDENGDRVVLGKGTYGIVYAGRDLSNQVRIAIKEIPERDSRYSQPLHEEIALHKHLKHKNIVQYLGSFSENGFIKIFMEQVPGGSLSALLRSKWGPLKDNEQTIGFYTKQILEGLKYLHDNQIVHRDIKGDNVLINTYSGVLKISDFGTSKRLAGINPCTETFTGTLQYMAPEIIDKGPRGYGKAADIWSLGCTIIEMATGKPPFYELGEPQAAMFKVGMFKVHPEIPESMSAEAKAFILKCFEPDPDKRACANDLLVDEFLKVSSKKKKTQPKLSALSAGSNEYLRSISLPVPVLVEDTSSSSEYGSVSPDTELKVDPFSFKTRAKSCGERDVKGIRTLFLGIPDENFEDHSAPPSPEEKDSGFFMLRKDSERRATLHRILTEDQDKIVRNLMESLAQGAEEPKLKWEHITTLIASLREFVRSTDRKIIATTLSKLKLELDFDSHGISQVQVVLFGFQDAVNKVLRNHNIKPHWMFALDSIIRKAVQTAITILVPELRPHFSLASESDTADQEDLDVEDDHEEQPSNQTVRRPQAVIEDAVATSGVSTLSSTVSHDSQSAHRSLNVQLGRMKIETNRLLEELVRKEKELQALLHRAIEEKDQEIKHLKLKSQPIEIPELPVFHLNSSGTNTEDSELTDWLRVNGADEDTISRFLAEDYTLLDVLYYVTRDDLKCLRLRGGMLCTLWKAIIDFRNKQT
For orientation: IC50 means the point on the concentration scale where inhibition reaches its midpoint. On to `COc1ccc(CCNc2nc(Nc3ccc(N4CCOCC4)cc3)nc3c2ncn3Cc2ccc(C(F)(F)F)cc2)cc1`, for which the IC50 was 5.3 µM.
Next, `Cc1cnc(Nc2nc3ccccc3n2C)nc1Nc1ccc(N2CCOCC2)cc1`: > 21.8 µM (inactive).
Next, `COc1ccc(CCNc2nc(Nc3cccc(N(C)C)c3)nc3c2ncn3C(C)C)cc1`: > 20 µM (inactive); `COc1cc2nc(Nc3ccc(N4CCOCC4)cc3)nc(Nc3ccc4c(c3)OCO4)c2cc1OC`: “inactive”.
Turning to `c1ccc(CN2CCC(Nc3nc(Nc4ccc(N5CCOCC5)cc4)nc4nc[nH]c34)CC2)cc1`, the IC50 was > 19.7 µM (inactive).
Next, `c1ccc2c(c1)OCC(c1nc(N3CCOCC3)c3cc(-c4cn[nH]c4)ccc3n1)O2` (centres undefined): > 19.2 µM (inactive).
To `CC(C)n1cnc2c(Nc3ccc4c(c3)OCO4)nc(Nc3ccc(N4CCOCC4)cc3)nc21` belongs > 20 µM (inactive); to `CC(C)n1cnc2c(Nc3ccc4c(c3)OCO4)nc(Nc3cccc(N(C)C)c3)nc21`, > 19.9 µM (inactive); to `COc1cc2nc(Nc3ccc(N4CCOCC4)cc3)nc(Nc3cc(OC)c(OC)c(OC)c3)c2cc1OC`, “inactive”.
Next, `CN(C)c1cccc(Nc2ccc(-n3cc(CC(=O)Nc4ccc5c(c4)OCO5)c4ccccc43)nn2)c1`: > 19 µM (inactive).
On to `Cc1cnc(-c2csc3ccccc23)nc1Nc1ccc(N2CCOCC2)cc1`, for which the IC50 was > 20.1 µM (inactive).
Next, `Cc1cc(NC2CCN(Cc3ccccc3)CC2)nc(Nc2ccc(N3CCOCC3)cc2)n1`: “inactive”; `COc1ccc(CCNc2nc(Nc3ccc(N4CCOCC4)cc3)ncc2C)cc1`: “inactive”.
To `COc1cc2nc(Nc3cccc(N(C)C)c3)nc(Nc3ccc4c(c3)OCO4)c2cc1OC` belongs 6.21 µM; to `c1cc(-n2cnc3c(Nc4ccc5c(c4)OCO5)nc(Nc4ccc(N5CCOCC5)cc4)nc32)cs1`, 5.72 µM.
Next, `Cc1ccc(-c2ncn(-c3ccc(Nc4nccc(-c5cncc6ccccc56)n4)cc3)n2)cn1`: > 19.2 µM (inactive); `Cc1cc(Nc2ccc3c(c2)OCO3)nc(Nc2ccc(N3CCOCC3)cc2)n1`: “inactive”; `CC(C)n1cnc2c(Nc3ccc(N4CCOCC4)cc3)nc(Nc3ccc(-n4ccnc4)cc3)nc21`: > 19.1 µM (inactive).
For the compound `COc1cc2nc(Nc3nccc4ccccc34)nc(Nc3ccc(NC(C)=O)cc3)c2cc1OC`, the IC50 result was “inactive”.
To `CCN(CC)C(=O)C1CCCN(c2nc(Nc3ccc(N4CCOCC4)cc3)c3ncn(Cc4ccc(C(F)(F)F)cc4)c3n2)C1` (centres undefined) belongs “inactive”; to `CN(C)c1cccc(Nc2cc(Nc3ccccc3)ncn2)c1`, > 22.2 µM (inactive).
To `c1ccc(CN2CCC(Nc3nc(Nc4ccc(N5CCOCC5)cc4)nc4c3ncn4C3CCCCC3)CC2)cc1` belongs 7.91 µM; to `Cc1ccc(-c2cccc3cnc(Nc4ccc(-n5cnc(C)n5)cc4)nc23)cn1`, > 19.2 µM (inactive).
To `FC(F)(F)c1ccc(Cn2cnc3c(NC4CCN(Cc5ccccc5)CC4)nc(Nc4ccc(N5CCOCC5)cc4)nc32)cc1` belongs “inactive”.
Consider `COc1ccc2c(c1)CC(C(=O)Nc1ccc(-c3cn[nH]c3)cc1OCCN(Cc1ccccc1)Cc1ccccc1)CO2` (centres undefined), for which the IC50 was > 19.2 µM (inactive).
As for `COc1cc(NC(=O)c2cccc(-n3cc(NC(=O)Nc4ccc(-c5ccccc5)cc4)cn3)c2)cc(OC)c1OC`, the IC50 is > 19.2 µM (inactive).
Next, `FC(F)(F)c1cc(-c2ccnc(Nc3ccc(N4CCOCC4)cc3)n2)cc(N2CCOCC2)c1`: > 19.2 µM (inactive); `COc1cc2nc(NC3CCN(Cc4ccccc4)CC3)nc(Nc3ccc(N4CCOCC4)cc3)c2cc1OC`: “inactive”; `c1ccc(-n2cnc3c(NCc4cccnc4)nc(Nc4ccc(N5CCOCC5)cc4)nc32)cc1`: “inactive”.
To `c1ccc(N2CCN(c3nc(Nc4ccc(N5CCOCC5)cc4)c4ncn(-c5ccsc5)c4n3)CC2)nc1` belongs “inactive”; to `COc1ccc(CCNc2cc(C)nc(Nc3cccc(N(C)C)c3)n2)cc1`, 6.67 µM; to `CC(C)n1cnc2c(NCc3cccc(C(F)(F)F)c3)nc(N3CCN(Cc4ccc5c(c4)OCO5)CC3)nc21`, 8.82 µM.
To `O=C(Cc1cn(-c2ccc(N3CCN(Cc4ccc5c(c4)OCO5)CC3)nn2)c2ccccc12)Nc1ccc(N2CCOCC2)cc1` belongs > 20 µM (inactive); to `c1cc(-n2cnc(N3CCOCC3)n2)ccc1Nc1ncc2ccc(-c3cn[nH]n3)cc2n1`, > 19.2 µM (inactive); to `COc1cc2nc(Nc3ccc(N4CCOCC4)cc3)nc(NCc3cccc(C(F)(F)F)c3)c2cc1OC`, > 20.1 µM (inactive).
With `c1ccc(CN2CCC(Nc3nc(Nc4ccc(N5CCOCC5)cc4)nc4c3ncn4-c3ccsc3)CC2)cc1`, the IC50 is 9.41 µM.
Next, `Cc1cc(NCCc2ccc(O)cc2)nc(Nc2cccc(N(C)C)c2)n1`: “inactive”; `COc1cc(Nc2nc(Nc3ccc(N4CCOCC4)cc3)c3ncn(Cc4ccc(C(F)(F)F)cc4)c3n2)cc(OC)c1OC`: “inactive”; `FC(F)(F)c1cccc(CNc2nc(Nc3ccc(N4CCOCC4)cc3)nc3c2ncn3-c2ccsc2)c1`: 8.62 µM.
Turning to `COc1ccc(CCNc2nc(N3CCN(Cc4ccc5c(c4)OCO5)CC3)nc3c2ncn3C2CCCCC2)cc1`, the IC50 is > 22.5 µM (inactive).
To `FC(F)(F)c1cccc(CNc2nc(N3CCN(Cc4ccc5c(c4)OCO5)CC3)nc3c2ncn3-c2ccccc2)c1` belongs > 20.1 µM (inactive).
To `CC(C)n1cnc2c(Nc3ccccc3)nc(Nc3ccc(N4CCOCC4)cc3)nc21` belongs “inactive”; to `COc1cc(Nc2nc(N3CCc4ccccc4C3)nc3c2ncn3C(C)C)cc(OC)c1OC`, > 20.1 µM (inactive).
In the case of `Cc1cc(Nc2ccc(N3CCOCC3)cc2)nc(Nc2cccc(N(C)C)c2)n1`, the IC50 is > 19.9 µM (inactive).
Turning to `COc1cc2nc(NCc3ccc4c(c3)OCO4)nc(Nc3ccc(N4CCOCC4)cc3)c2cc1OC`, the IC50 was > 19.9 µM (inactive).
As to `Cc1ncn(-c2ccc(Nc3nccc(-c4cc(F)cc(-c5cn[nH]c5C)c4)n3)cc2)n1`, the IC50 is > 19.2 µM (inactive).
To `CC(C)n1cnc2c(Nc3ccc(Oc4ccccc4)cc3)nc(N3CCOCC3)nc21` belongs “inactive”; to `FC(F)(F)c1ccc(Cn2cnc3c(NCc4ccccc4)nc(-c4ccc(N5CCOCC5)nc4)nc32)cc1`, > 19.9 µM (inactive); to `Cc1cc(Nc2ccc(N3CCOCC3)cc2)nc(N2CCc3ccccc3C2)n1`, “inactive”.
To `Cc1cc(Nc2ccc(N3CCOCC3)cc2)nc(N2CCN(Cc3ccc4c(c3)OCO4)CC2)n1` belongs “inactive”; to `OC1CCN(c2ccc(Nc3nccc(-c4cc(F)cc(N5CCN(C6CC6)CC5)c4)n3)cc2)CC1`, > 19.2 µM (inactive).
For the compound `Cc1nc(C)n(-c2ccc(Nc3nccc(-c4cc(F)cc(-c5ncco5)c4)n3)cc2)n1`, the IC50 is > 19.2 µM (inactive).
Next, `FC(F)(F)c1ccc(Cn2cnc3c(Nc4ccc5c(c4)OCO5)nc(Nc4ccc(N5CCOCC5)cc4)nc32)cc1`: 5.36 µM; `c1cn(-c2ccc(Nc3nc4ncnc(Nc5ccc6c(c5)OCO6)c4[nH]3)cc2)cn1`: > 21.9 µM (inactive).
Next, `Cc1n[nH]c(C)c1-c1cc(F)cc(-c2ccnc(Nc3ccc(-n4cnc(N5CCOCC5)n4)cc3)n2)c1`: > 19.2 µM (inactive).
Next, `COc1cc2nc(Nc3nc4ccccc4n3C)nc(Nc3ccc(NC(C)=O)cc3)c2cc1OC`: 4.33 µM; `c1ccc2c(c1)CCN(c1nccc(Nc3ccc(N4CCOCC4)cc3)n1)C2`: “inactive”.
As to `CC(C)n1cnc2c(Nc3ccc(N4CCOCC4)cc3)nc(N3CCN(c4ccccn4)CC3)nc21`, the IC50 result was “inactive”.
Next, `Cc1[nH]ncc1-c1ccc2nc(NC(=O)C3COc4ccc(F)cc4C3)sc2c1` (centres undefined): > 19.2 µM (inactive); `FC(F)(F)c1cccc(CNc2nc(N3CCN(c4ccccn4)CC3)nc3c2ncn3-c2ccsc2)c1`: > 20 µM (inactive); `O=c1[nH]cccc1-c1ccc(Nc2nccc(-c3ccc4nc(C5CC5)[nH]c(=O)c4c3)n2)cc1`: > 19.2 µM (inactive).
Regarding `Cc1ccccc1-c1cscc1Nc1cnn(-c2cccc(C(=O)Nc3ccc(N4CCOCC4)cc3)c2)c1`, the IC50 was > 19.2 µM (inactive).
`Oc1ccc(CCNc2nc(N3CCN(c4ccccn4)CC3)nc3c2ncn3-c2ccsc2)cc1`: the IC50 was > 21.3 µM (inactive).
Next, `COc1cc2nc(Nc3cccc(N(C)C)c3)nc(Nc3ccc(NC(C)=O)cc3)c2cc1OC`: 7.74 µM.
Next, `COc1cc2nc(Nc3nc4ccccc4n3C)nc(Nc3ccc(N4CCOCC4)cc3)c2cc1OC`: 8.95 µM; `Cc1ccc(-c2ncn(-c3ccc(Nc4ncc(Cl)c(-c5ccnn5C)n4)cc3)n2)cn1`: > 19.2 µM (inactive).
To `COc1cc2nc(Nc3ccc(N4CCOCC4)cc3)nc(NCCOc3ccccc3)c2cc1OC` belongs “inactive”; to `COc1cc2nc(Nc3ccc(N4CCOCC4)cc3)nc(Nc3ccc(OCCN4CCCCC4)cc3)c2cc1OC`, > 17.5 µM (inactive); to `c1ccc(Nc2cc(-c3ccnc(Nc4ccc(N5CCOCC5)cc4)c3)nn2-c2ccccc2)cc1`, > 19.2 µM (inactive).

These data come from PubChem BioAssay AID1159605 (The Scripps Research Institute Molecular Screening Center, 2016).
